Reference: PubChem BioAssay AID1259407 (Chemical Carcinogenesis Research Information System (CCRIS), 2018)
Active and inactive are the calls of the source. The rule behind the calls is not given here.

System: CCRIS mutagenicity, Ames/micronucleus/aberration tests
Experiment: CCRIS mutagenicity studies
Conditions: Test System: AMES SALMONELLA TYPHIMURIUM
[1] = Strain/Indicator: TA98, Metabolic Activation: NONE, Method: PREINCUBATION
[2] = Strain/Indicator: TA98, Metabolic Activation: NONE, Method: STANDARD PLATE
[3] = Strain/Indicator: TA98, Metabolic Activation: RAT, LIVER, S-9, AROCLOR 1254, Method: STANDARD PLATE
[4] = Strain/Indicator: TA100, Metabolic Activation: NONE, Method: STANDARD PLATE
[5] = Strain/Indicator: TA100, Metabolic Activation: RAT, LIVER, S-9, AROCLOR 1254, Method: STANDARD PLATE
[6] = Strain/Indicator: TA1538, Metabolic Activation: NONE, Method: STANDARD PLATE
[7] = Strain/Indicator: TA1538, Metabolic Activation: RAT, LIVER, S-9, AROCLOR 1254, Method: STANDARD PLATE
[8] = Strain/Indicator: TA97, Metabolic Activation: RAT, LIVER, S-9, AROCLOR 1254, Method: STANDARD PLATE

Measured: mutagenic call

CCC[CH2][Sn]([CH2]CCC)([CH2]CCC)[O][Sn]([CH2]CCC)([CH2]CCC)[CH2]CCC
inactive: Strain/Indicator: TA97, Metabolic Activation: HAMSTER, LIVER, S-9, AROCLOR 1254 (10 OR 30%), Method: PREINCUBATION inactive; negative | Strain/Indicator: TA97, Metabolic Activation: NONE, Method: PREINCUBATION inactive; negative | Strain/Indicator: TA97, Metabolic Activation: RAT, LIVER, S-9, AROCLOR 1254 (10 OR 30%), Method: PREINCUBATION inactive; negative | Strain/Indicator: TA98, Metabolic Activation: HAMSTER, LIVER, S-9, AROCLOR 1254 (10 OR 30%), Method: PREINCUBATION inactive; negative | [1] inactive; negative | Strain/Indicator: TA98, Metabolic Activation: NONE, Method: SUSPENSION/PLATE inactive; negative | Strain/Indicator: TA98, Metabolic Activation: RAT, LIVER, S-9, AROCLOR 1254 (10 OR 30%), Method: PREINCUBATION inactive; negative | Strain/Indicator: TA100, Metabolic Activation: HAMSTER, LIVER, S-9, AROCLOR 1254 (10 OR 30%), Method: PREINCUBATION inactive; negative | Strain/Indicator: TA100, Metabolic Activation: NONE, Method: PREINCUBATION inactive; negative | Strain/Indicator: TA100, Metabolic Activation: NONE, Method: SUSPENSION/PLATE inactive; negative | Strain/Indicator: TA100, Metabolic Activation: RAT, LIVER, S-9, AROCLOR 1254 (10 OR 30%), Method: PREINCUBATION inactive; negative | Strain/Indicator: TA1535, Metabolic Activation: HAMSTER, LIVER, S-9, AROCLOR 1254 (10 OR 30%), Method: PREINCUBATION inactive; negative | Strain/Indicator: TA1535, Metabolic Activation: NONE, Method: PREINCUBATION inactive; negative | Strain/Indicator: TA1535, Metabolic Activation: RAT, LIVER, S-9, AROCLOR 1254 (10 OR 30%), Method: PREINCUBATION inactive; negative

CCCCOc1cc(N=Nc2ccc(N(CC)CC)cc2)ccc1N=Nc1c(S(=O)(=O)O)cc2ccc(N)cc2c1O
inactive: [2] inactive; negative | [4] inactive; negative | [5] inactive; negative | [6] inactive; negative
active: [3] active; positive | [7] active; positive

C=CCc1ccc(O)c(O)c1
inactive: Strain/Indicator: TA97, Metabolic Activation: NONE, Method: STANDARD PLATE inactive; negative | [8] inactive; negative | [2] inactive; negative | [3] inactive; negative | [4] inactive; negative | [5] inactive; negative | Strain/Indicator: TA102, Metabolic Activation: RAT, LIVER, S-9, AROCLOR 1254, Method: STANDARD PLATE inactive; negative | Strain/Indicator: TA1535, Metabolic Activation: NONE, Method: STANDARD PLATE inactive; negative | Strain/Indicator: TA1535, Metabolic Activation: RAT, LIVER, S-9, AROCLOR 1254, Method: STANDARD PLATE inactive; negative | [6] inactive; negative | [7] inactive; negative
active: Strain/Indicator: TA102, Metabolic Activation: NONE, Method: STANDARD PLATE active; positive

Nc1ccc2nc3c(N)cccc3nc2c1
active: Strain/Indicator: TA98, Metabolic Activation: RAT, LIVER, S-9, PCB, Method: PREINCUBATION active; positive
inactive: [1] inactive; negative

Cc1c(/C=N/OCc2ccc(Cl)cc2)c2cc([N+](=O)[O-])ccc2n1Cc1ccccc1
inactive: [2] inactive; negative | Strain/Indicator: TA98, Metabolic Activation: RAT, LIVER, S-9, PHENOBARBITAL AND BETA-NAPHTHOFLAVONE, Method: STANDARD PLATE inactive; negative | [4] inactive; negative | Strain/Indicator: TA100, Metabolic Activation: RAT, LIVER, S-9, PHENOBARBITAL AND BETA-NAPHTHOFLAVONE, Method: STANDARD PLATE inactive; negative

Cc1c2c3ccccc3nc-2n(C)c2c(C)cccc12
active: [8] active; positive
